# Results from patent US20110178104A1, “Anti-Heparin Compounds” (POLYMEDIX INC., priority 2010, published 2011).
# Starred links: 1 amine or outer side, 2 acyl side, 3 side chain; linkers in the order of their positions; H or OH if unused. Non-standard residues stand in square brackets, D forms with d. Residues, ends and D or L forms follow the SMILES beside them. *: point of attachment. NH(3-CONH2-4-OMe-phenyl) = COc1ccc(N*)cc1C(N)=O; 3Abz(6-OMe) = COc1ccc(N[*:1])cc1C(=O)[*:2]; X1 = O=C(O)COc1ccc(N[*:1])cc1C(=O)[*:2]
# Columns and labels:
# enoxaparin [1] = assay: FXa amidolytic assay (Example 10), enoxaparin; details: read-out: Enox FXa EC50; enoxaparin 0.1 ug/ml; human antithrombin, bovine Factor Xa
# Method: (§2) Two μl of test agent are added (range between 0.01 and 23 ug/ml) and incubated for 5 minutes at 23° C. Bovine Factor Xa was added to a final concentration of 0.636 nkat/mL and incubated for a further 10 minutes at 23° C.
# HepG2 cells = assay: Cytotoxicity colorimetric assay, HepG2; type: cell-based, human; parameters: Cytotoxicity HepG2, percent printed in parentheses after the concentration: concentration or dose not given beside the values; details: for Cytotoxicity HepG2, percent printed in parentheses after the concentration: at the concentration given
# Method: (§1) This assay measures the bioreduction of a novel tetrazolium compound to a soluble formazan product by viable cells. HepG2 cells were seeded in 96 well plates at 3×10^4 cells/well in MEM medium with 10% fetal bovine serum (FBS) 24 hours prior to use. NIH/3T3 cells were seeded in 96 well plates at 2×10^4 cells/well in DMEM medium with 10% bovine calf serum (BCS) 24 hours prior to use. Cell monolayers were rinsed in serum-free media and incubated for one hour with test agent in serum-free media. After incubation, the media was replaced with serum supplemented media and live cells were measured using the Cell Titer 96 Aqueous […] Assay kit (Promega, Madison, Wis.). EC50 values were determined using a four parameter logistic equation: Y=Bottom+(Top-Bottom)/(1+10̂((LogEC50-X)*HillSlope)).
# [2] = Cytotoxicity colorimetric assay, HepG2; type: cell-based, human; parameters: Cytotoxicity HepG2, percent printed in parentheses after the concentration: concentration or dose not given beside the values; details: human, HepG2 cells, one hour in serum-free media
# Method: as §1
# tinzaparin = assay: FXa amidolytic assay (Example 10), tinzaparin; details: read-out: Tinzap FXa EC50; tinzaparin 0.1 ug/ml; human antithrombin, bovine Factor Xa
# Method: as §2
# fondaparinux = assay: FXa amidolytic assay (Example 10), fondaparinux; details: for EC50: read-out: Fondap FXa EC50, fondaparinux 0.02 μg/mL, human antithrombin, bovine Factor Xa
# Method: as §2
# Unfractionated heparin = assay: aPTT clotting assay, UFH 0.4 U/mL in plasma (Example 10); type: biochemical; details: unfractionated heparin 0.4 U/mL in plasma; aPTT clotting
# Method: aPTT clotting Assay: Unfractionated heparin was mixed with plasma at a final concentration of 0.4 U/mL (or concentration which increases aPTT time to between 120 and 300 seconds). […] The ACL Elite Hemostasis analyzer (Beckman Coulter™) was used to add aPTT reagent (HemosIL SynthASil) to supplemented plasma. Clotting was initiated by addition of CaCl2 and time to clot was recorded.
# enoxaparin [3] = assay: In vivo neutralization of enoxaparin in the rat; details: compared with protamine
# Method: Compounds were tested for their ability to neutralize enoxaparin coagulation inhibition in rats. Male Sprague-Dawley rats were used in this study (Charles River Laboratories). They were ten-weeks-old at the start of the study and their weights ranged from 319-362 g. Enoxaparin (2 mg/kg) was administered by IV injection to groups of six rats. After 3 min, saline, protamine or a test compound was administered by IV injection. Blood was collected before dosing with enoxaparin, and at 1, 3, 10, 30 and 60 min after dosing with the standard and test compounds. All treatments were dosed in a volume of 1 mL/kg. Blood was collected via the orbital sinus from three rats per group. At each time point, 1 mL of blood was collected from each animal into a single tube. The blood was analyzed using an AMEX Destiny Plus Coagulation Analyzer for activated partial thromboplastin time (APTT) and anti-Factor Xa (low-molecular weight).
# UFH = assay: FXa amidolytic assay (Example 10), UFH; details: read-out: Heparin FXa uM EC50; UFH 0.03 units/mL; human antithrombin, bovine Factor Xa
# Method: as §2
# [4] = Cytotoxicity colorimetric assay, NIH/3T3; type: cell-based, mouse; details: mouse, NIH/3T3 cells, one hour in serum-free media
# Method: as §1
# [5] = system: isolated human erythrocytes; assay: cells; type: cell-based; details: human RBC, 1 hour at 37° C.; for EC50: Homo sapiens, Erythrocyte, 1 h, read-out: Hemolysis EC50
# Method in brief: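 Pooled human red cells, washed and diluted from a 0.22% stock suspension in TBS pH 7.4, were shaken with two-fold dilutions (1000 to 0.48 µg/ml) for 1 h at 37 °C. Released hemoglobin in the supernatant was read at OD405. EC50 came from a four-parameter logistic fit, with melittin as positive control.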
# NIH/3T3 cells = assay: Cytotoxicity colorimetric assay, NIH/3T3; type: cell-based, mouse
# Method: as §1
Compound,EC50 (enoxaparin [1]),"Cytotoxicity HepG2, percent printed in parentheses after the concentration (HepG2 cells)",EC50 at 1 h [2],EC50 (tinzaparin),EC50 (fondaparinux),EC50 (Unfractionated heparin),in vivo efficacy versus LMWH by anti-factor Xa activity (summary) (enoxaparin [3]),EC50 (UFH),Potent LMWH-antagonists with superior anti-fondaparinux activity (summary) (fondaparinux),EC50 at 1 h [4],EC50 [5],"Cytotoxicity 3T3, percent printed in parentheses after the concentration (NIH/3T3 cells; at the concentration given)",Hemolysis EC50 [5],Cytotoxicity HepG2 EC50 (HepG2 cells; one hour in serum-free media),Cytotoxicity 3T3 EC50 (NIH/3T3 cells; one hour in serum-free media)
COc1ccc(NC(=O)[C@H](CCCCN)NC(=O)c2cc(NC(=O)[C@H](CCCCN)NC(=O)c3cc(NC(=O)[C@H](CCCCN)NC(=O)c4cc(NC(=O)[C@@H](N)CCCCN)ccc4OC)ccc3OC)ccc2OC)cc1C(=O)Nc1cccc(C(=O)O)c1 [Compound 275],134 nM,50%,1000 µg/mL,113 nM,579 nM,1720 nM,–,–,–,–,–,–,–,–,–
COc1cc(OC)c(C(=O)N[C@H]2CC[C@@H](NC(=O)c3cc(C(=O)NCCN(C)C)c(OCCCCCN)cc3OCCCCCN)CC2)cc1C(=O)N[C@H]1CC[C@@H](NC(=O)c2cc(C(=O)NCCN(C)C)c(OCCCCCN)cc2OCCCCCN)CC1 [Compound 363],67 nM,–,> 1000 µg/mL,113 nM,1060 nM,1030 nM,superior to protamine,0.134 µM,superior anti-fondaparinux activity,500 µg/mL,> 1000 µg/mL,–,–,–,–
COc1ccc(NC(=O)[C@@H](CCCNC(=N)N)NC(=O)c2cc(NC(=O)[C@@H](CCCNC(=N)N)NC(=O)c3cc(NC(=O)[C@@H](CCCNC(=N)N)NC(=O)c4cc(NC(=O)[C@H](N)CCCNC(=N)N)ccc4OC)ccc3OC)ccc2OCC(=O)O)cc1C(N)=O [Compound 281],129 nM,50%,1000 µg/mL,111 nM,441 nM,1810 nM,–,0.108 µM,–,–,> 1000 µg/mL,–,–,–,–
COc1ccc(NC(=O)[C@@H](CCCNC(=N)N)NC(=O)c2cc(NC(=O)[C@@H](CCCNC(=N)N)NC(=O)c3cc(NC(=O)[C@@H](CCCNC(=N)N)NC(=O)c4cc(NC(C)=O)ccc4OC)ccc3OC)ccc2OC)cc1C(=O)N[C@H](Cc1ccc(O)cc1)C(=O)O [Compound 297],293 nM,60%,300 µg/mL,318 nM,225 nM,7120 nM,–,0.215 µM,–,–,> 1000 µg/mL,–,–,–,–
COc1cc(OC)c(C(=O)N[C@H]2CC[C@@H](NC(=O)c3ccc(OCCCCCN)cc3OCCCCCN)CC2)cc1C(=O)N[C@H]1CC[C@@H](NC(=O)c2ccc(OCCCCCN)cc2OCCCCCN)CC1 [Compound 369],143 nM,–,280 µg/mL,176 nM,3860 nM,350 nM,superior to protamine,0.411 µM,–,100 µg/mL,> 1000 µg/mL,–,–,–,–
COc1ccc(NC(=O)[C@H](CCCCN)NC(=O)c2cc(NC(=O)[C@H](CCCCN)NC(=O)c3cc(NC(=O)[C@H](CCCCN)NC(=O)c4cc(NC(=O)[C@@H](N)CCCCN)ccc4OC)ccc3OC)ccc2OC)cc1C(=O)N[C@@H](Cc1ccccc1)C(=O)O [Compound 263],376 nM,60%,255 µg/mL,352 nM,1600 nM,1250 nM,–,0.179 µM,–,–,> 1000 µg/mL,–,–,–,–
COc1ccc(NC(=O)[C@H](CCCCN)NC(=O)c2cc(NC(=O)[C@H](CCCCN)NC(=O)c3cc(NC(=O)[C@H](CCCCN)NC(=O)c4cc(NC(=O)[C@@H](N)Cc5c[nH]c6ccccc56)ccc4OC)ccc3OC)ccc2OC)cc1C(N)=O [Compound 246],514 nM,80%,60 µg/mL,368 nM,2540 nM,2370 nM,–,0.11 µM,–,–,> 1000 µg/mL,–,–,–,–
COc1ccc(NC(=O)[C@@H](CCCNC(=N)N)NC(=O)c2cc(NC(=O)[C@@H](CCCNC(=N)N)NC(=O)c3cc(NC(=O)[C@@H](CCCNC(=N)N)NC(=O)c4cc(NC(C)=O)ccc4OC)ccc3OC)ccc2OC)cc1C(=O)N[C@H](Cc1c[nH]c2ccccc12)C(=O)O [Compound 304],256 nM,50%,–,257 nM,209 nM,> 10000 nM,–,0.242 µM,–,–,~500 µg/mL,–,–,–,–
COc1ccc(NC(=O)[C@H](CCCNC(=N)N)NC(=O)c2cc(NC(=O)[C@H](CCCNC(=N)N)NC(=O)c3cc(NC(=O)[C@H](CCCNC(=N)N)NC(=O)c4cc(NC(=O)[C@@H](N)CCCNC(=N)N)ccc4OC)ccc3OC)ccc2OCC(=O)O)cc1C(N)=O [Compound 287],114 nM,30%,1000 µg/mL,108 nM,402 nM,1980 nM,–,–,–,1000 µg/mL,–,50%,no significant decrease,–,–
COc1ccc(NC(=O)[C@H](CCCCN)NC(=O)c2cc(NC(=O)[C@H](CCCCN)NC(=O)c3cc(NC(=O)[C@H](CCCCN)NC(=O)c4cc(NC(=O)[C@H](CCCCN)NC(=O)[C@@H](N)Cc5c[nH]c6ccccc56)ccc4OC)ccc3OC)ccc2OCC(=O)O)cc1C(N)=O [Compound 352] (H-WK[3Abz(6-OMe)]K[3Abz(6-OMe)]K[X1]K-{NH(3-CONH2-4-OMe-phenyl)}),299 nM,–,758 µg/mL,162 nM,934 nM,2270 nM,–,0.287 µM,–,> 1000 µg/mL,> 1000 µg/mL,–,–,–,–
COc1ccc(NC(=O)[C@H](CCCCN)NC(=O)c2cc(NC(=O)[C@H](CCCCN)NC(=O)c3cc(NC(=O)[C@H](CCCCN)NC(=O)c4cc(NC(=O)[C@@H](N)CCCCN)ccc4OC)ccc3OC)ccc2OCC(=O)O)cc1C(=O)N[C@@H](Cc1c[nH]c2ccccc12)C(N)=O [Compound 348],120 nM,–,> 1000 µg/mL,67 nM,263 nM,2400 nM,superior to protamine,0.153 µM,superior anti-fondaparinux activity,> 1000 µg/mL,> 1000 µg/mL,–,–,–,–
protamine sulfate [reference compound],–,–,–,–,–,–,–,–,–,–,–,–,>1000 µg/mL,>1000 µg/mL,>1000 µg/mL
